Test results: ChEMBL document CHEMBL4627376, “Substituted benzyloxytricyclic compounds as retinoic acid-related orphan receptor gamma t (RORγt) agonists” (Bioorg Med Chem Lett, 2020)

Legend:
[1] = Stability in human liver microsomes assessed as parent compound remaining at 0.5 uM in presence of NADPH by MS/MS analysis; type: ADME, Microsome; details: read-out: Stability
[2] = Stability in rat liver microsomes assessed as parent compound remaining at 0.5 uM in presence of NADPH by MS/MS analysis; type: ADME, Microsome; details: read-out: Stability
[3] = Stability in mouse liver microsomes assessed as parent compound remaining at 0.5 uM in presence of NADPH by MS/MS analysis; type: ADME, Microsome; details: read-out: Stability
[4] = AUC in C57BL6 mouse at 30 mg/kg, po qd via gavage after 24 hrs by LC-MS/MS analysis; type: ADME, organism-based; set-up: time < 24 hr, dose 30 mg/kg, route oral; details: in vivo
[5] = AUC in C57BL6 mouse at 2 mg/kg, iv qd administered as bolus dose after 24 hrs by LC-MS/MS analysis; type: ADME, organism-based; set-up: time < 24 hr, dose 2 mg/kg, route intravenous; details: in vivo
[6] = Cmax in C57BL6 mouse at 30 mg/kg, po qd via gavage after 24 hrs by LC-MS/MS analysis; type: ADME, organism-based; set-up: dose 30 mg/kg, route oral; details: in vivo
[7] = Tmax in C57BL6 mouse at 30 mg/kg, po qd via gavage after 24 hrs by LC-MS/MS analysis; type: ADME, organism-based; details: in vivo
[8] = Clearance in C57BL6 mouse at 2 mg/kg, iv qd administered as bolus dose after 24 hrs by LC-MS/MS analysis; type: ADME, organism-based; details: in vivo
[9] = Permeability of compound at pH 7.4; type: ADME; details: not told, read-out: permeability
[10] = Volume of distribution at steady state in C57BL6 mouse at 2 mg/kg, iv qd administered as bolus dose after 24 hrs by LC-MS/MS analysis; type: ADME, organism-based; details: in vivo, read-out: Vdss
[11] = Drug level in mouse MC38 cells allografted C57BL6 mouse blood at 10 mg/kg, po BID and measured after 24 hrs; type: ADME, organism-based; details: whole blood, read-out: Drug uptake
[12] = molecular target: T1, Nuclear receptor ROR-gamma (Mus musculus, UniProt P51450); test: Agonist activity at RORgammat in mouse whole blood assessed as induction of IL-17A expression; type: tissue-based
T1 sequence (P51450 whole entry): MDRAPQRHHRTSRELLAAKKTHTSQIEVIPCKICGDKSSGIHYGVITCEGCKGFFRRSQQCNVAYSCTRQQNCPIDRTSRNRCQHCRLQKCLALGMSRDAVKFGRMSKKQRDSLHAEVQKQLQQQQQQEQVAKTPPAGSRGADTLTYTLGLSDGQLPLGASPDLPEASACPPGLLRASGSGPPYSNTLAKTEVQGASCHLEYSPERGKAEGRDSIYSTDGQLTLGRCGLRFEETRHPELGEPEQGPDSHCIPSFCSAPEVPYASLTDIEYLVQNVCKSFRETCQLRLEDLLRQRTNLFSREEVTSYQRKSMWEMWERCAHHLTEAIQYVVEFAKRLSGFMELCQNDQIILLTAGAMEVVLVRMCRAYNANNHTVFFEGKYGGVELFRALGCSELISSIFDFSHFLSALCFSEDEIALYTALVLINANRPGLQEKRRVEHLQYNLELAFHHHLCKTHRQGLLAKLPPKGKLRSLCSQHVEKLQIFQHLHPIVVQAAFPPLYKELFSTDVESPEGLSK

[13] = Drug metabolism in mouse hepatocytes assessed as UGT-mediated metabolism by measuring half life; type: ADME, cell-based
[14] = Half life in mouse hepatocytes; type: ADME, cell-based, Hepatocyte

remaining at 0.5 µM [1] [%] | remaining at 0.5 µM [2] [%] | remaining at 0.5 µM [3] [%] | SMILES | also measured
17 | 39 |  | NC(=O)[C@H]1CC[C@H](C(=O)N2CC[C@@]3(S(=O)(=O)c4ccc(F)cc4)c4ccc(OCc5c(F)cccc5C(F)(F)F)cc4CC[C@@H]23)CC1 | 
3 | 33 | 57 | NC(=O)N1CCC(C(=O)N2CC[C@@]3(S(=O)(=O)c4ccc(F)cc4)c4ccc(OCc5c(F)cccc5C(F)(F)F)cc4CC[C@@H]23)CC1 | 
97 | 65 | 100 | O=C(O)[C@H]1CC[C@H](C(=O)N2CC[C@@]3(S(=O)(=O)c4ccc(F)cc4)c4ccc(OCc5c(F)cccc5C(F)(F)F)cc4CC[C@@H]23)CC1 | AUC at 24 h [4]: 103 µM·h; AUC at 24 h [5]: 5.4 µM·h; Cmax [6]: 38 µM; Tmax [7]: 1 h; half-life [13]: > 2 h; clearance [8]: 9.1 mL/min/kg; Papp [9]: 10.1 ×10⁻⁶ cm/s; half-life [14]: > 2 h; Vd [10]: 1.8 L/kg

Continued, molecule first:

SMILES | remaining at 0.5 µM [1] [%] | remaining at 0.5 µM [2] [%] | remaining at 0.5 µM [3] [%] | also measured
CS(=O)(=O)N[C@H]1CC[C@H](C(=O)N2CC[C@@]3(S(=O)(=O)c4ccc(F)cc4)c4ccc(OCc5c(F)cccc5C(F)(F)F)cc4CC[C@@H]23)CC1 | 2 | 30 | 41 | 
O=C(N1CC[C@@]2(S(=O)(=O)c3ccc(F)cc3)c3ccc(OCc4c(F)cccc4C(F)(F)F)cc3CC[C@@H]12)C1(O)CCS(=O)(=O)CC1 | 1 | 4 | 51 | 
C[C@]1(C(=O)N2CC[C@@]3(S(=O)(=O)c4ccc(F)cc4)c4ccc(OCc5c(F)cccc5C(F)(F)F)cc4CC[C@@H]23)CC[C@H](C(=O)O)CC1 | 80 | 48 | 100 | AUC at 24 h [4]: 275 µM·h; AUC at 24 h [5]: 6.5 µM·h; Cmax [6]: 61 µM; Tmax [7]: 0.5 h; clearance [8]: 6.7 mL/min/kg; Papp [9]: 40.6 ×10⁻⁶ cm/s; Vd [10]: 1.1 L/kg; concentration at 24 h [11]: 0.1 µM; EC50 [12]: 380 nM
O=C([C@H]1CC[C@H](c2nnn[nH]2)CC1)N1CC[C@@]2(S(=O)(=O)c3ccc(F)cc3)c3ccc(OCc4c(F)cccc4C(F)(F)F)cc3CC[C@@H]12 | 55 | 67 | 82 | 
O=C(CN1CCS(=O)(=O)CC1)N1CC[C@@]2(S(=O)(=O)c3ccc(F)cc3)c3ccc(OCc4c(F)cccc4C(F)(F)F)cc3CC[C@@H]12 | 1 | 14 | 14 | 
O=C(C1CCS(=O)(=O)CC1)N1CC[C@@]2(S(=O)(=O)c3ccc(F)cc3)c3ccc(OCc4c(F)cccc4C(F)(F)F)cc3CC[C@@H]12 | 1 | 18 | 52 | 
